# From article PMC6001238, “Iterative Chemical Engineering of Vancomycin Leads to Novel Vancomycin Analogs With a High in Vitro Therapeutic Index” (Frontiers in Microbiology, 2018)
# What was measured:
# E. faecalis VRE 6 = assay: MIC, broth microdilution, vancomycin-resistant E. faecalis VRE 6 (VanA); format: cell-based, Enterococcus faecalis; settings: for MIC: Enterococcus faecalis VRE 6 (vancomycin-resistant), read-out: MIC; for MIC-fold improvement vs. vancomycin: VRE 6, ratio of MIC of vancomycin and MIC of analogue
# Summary of the method: (§1)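 Controls (ultrapure water; broth not inoculated) were included throughout CLSI-compliant broth microdilution. One condition supplemented analogue or comparator with 10 μM vancomycin, final level.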
# E. faecalis VSE 1 = assay: MIC, broth microdilution, vancomycin-sensitive E. faecalis (VSE 1); format: cell-based, Enterococcus faecalis; settings: for MIC: Enterococcus faecalis VSE 1 (vancomycin-sensitive), read-out: MIC; for MIC-fold improvement vs. vancomycin: VSE 1, ratio of MIC of vancomycin and MIC of analogue
# Summary of the method: as §1
# E. faecalis VRE 29 = assay: MIC, broth microdilution, vancomycin-resistant E. faecalis VRE 29 (VanA); format: cell-based, Enterococcus faecalis; settings: for MIC: Enterococcus faecalis VRE 29 (vancomycin-resistant), read-out: MIC; for MIC-fold improvement vs. vancomycin: VRE 29, ratio of MIC of vancomycin and MIC of analogue
# Summary of the method: as §1
# [1] = system: human cervix carcinoma (HeLa) cells; assay: Cytostatic activity, HeLa cell proliferation; format: cell-based; settings: mean ± SD of three experiments; highest concentration tested 250 µM; 4 days; read-out: Toxicity (IC50) HeLa
# Summary of the method: (§2)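 Coulter counter cell counts after 37°C culture with compound; IC50 = concentration giving 50% growth inhibition vs negative control. Incubation: L1210 2 d, CEM 3 d, HeLa 4 d. Suspension density before mixing with an equal volume of dilution: 300,000–500,000 cells/mL.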
# MRSA KS1 = assay: MIC, broth microdilution, MRSA KS1; format: cell-based, Staphylococcus aureus; settings: for MIC-fold improvement vs. vancomycin: MRSA KS1, ratio of MIC of vancomycin and MIC of analogue; for MIC: Staphylococcus aureus MRSA KS1, read-out: MIC
# Summary of the method: as §1
# [2] = system: L1210, CEM and HeLa cell lines; assay: Cytostatic activity, average or summary over L1210, CEM and HeLa; format: cell-based; settings: average of L1210, CEM and HeLa; read-out: Toxicity (IC50) Average
# Summary of the method: as §2
# MRSA KS2 = assay: MIC, broth microdilution, MRSA KS2; format: cell-based, Staphylococcus aureus; settings: for MIC-fold improvement vs. vancomycin: MRSA KS2, ratio of MIC of vancomycin and MIC of analogue; for MIC: Staphylococcus aureus MRSA KS2, read-out: MIC
# Summary of the method: as §1
# S. aureus VRSA = assay: MIC, broth microdilution, vancomycin-resistant S. aureus (VRSA); format: cell-based, Staphylococcus aureus; settings: for MIC: Staphylococcus aureus VRSA, read-out: MIC; for MIC-fold improvement vs. vancomycin: VRSA, ratio of MIC of vancomycin and MIC of analogue
# Summary of the method: as §1
# [3] = system: Murine leukemia (L1210) cells; assay: Cytostatic activity, L1210 cell proliferation; format: cell-based; settings: mean ± SD of three experiments; highest concentration tested 250 µM; 2 days; read-out: Toxicity (IC50) L1210
# Summary of the method: as §2
# [4] = system: S. aureus VSSA (ATCC 6538); assay: MIC, broth microdilution, vancomycin-sensitive S. aureus (VSSA/MSSA, ATCC 6538); format: cell-based, Staphylococcus aureus; settings: for MIC: Staphylococcus aureus VSSA, read-out: MIC; for MIC-fold improvement vs. vancomycin: VSSA, ratio of MIC of vancomycin and MIC of analogue
# Summary of the method: as §1
# E. faecalis VRE 37 = assay: MIC, broth microdilution, vancomycin-resistant E. faecalis VRE 37 (VanA); format: cell-based, Enterococcus faecalis; settings: for MIC: Enterococcus faecalis VRE 37 (vancomycin-resistant), read-out: MIC
# Summary of the method: as §1
# MRSA KS6 = assay: MIC, broth microdilution, MRSA KS6; format: cell-based, Staphylococcus aureus; settings: for MIC-fold improvement vs. vancomycin: MRSA KS6, ratio of MIC of vancomycin and MIC of analogue; for MIC: Staphylococcus aureus MRSA KS6, read-out: MIC
# Summary of the method: as §1
# [5] = system: human T-lymphocyte (CEM) cells; assay: Cytostatic activity, CEM cell proliferation; format: cell-based; settings: mean ± SD of three experiments; highest concentration tested 250 µM; 3 days; read-out: Toxicity (IC50) CEM
# Summary of the method: as §2
# E. faecalis VRE 53 = assay: MIC, broth microdilution, vancomycin-resistant E. faecalis VRE 53 (VanA); format: cell-based, Enterococcus faecalis; settings: for MIC: Enterococcus faecalis VRE 53 (vancomycin-resistant), read-out: MIC; for MIC-fold improvement vs. vancomycin: VRE 53, ratio of MIC of vancomycin and MIC of analogue
# Summary of the method: as §1
# S. aureus VISA/HIP5827 = assay: MIC, broth microdilution, vancomycin-intermediate S. aureus VISA HIP5827; format: cell-based, Staphylococcus aureus; settings: for MIC: Staphylococcus aureus VISA/HIP5827, read-out: MIC; for MIC-fold improvement vs. vancomycin: VISA/HIP5827, ratio of MIC of vancomycin and MIC of analogue
# Summary of the method: as §1
# MRSA KS89 = assay: MIC, broth microdilution, MRSA KS89; format: cell-based, Staphylococcus aureus; settings: for MIC-fold improvement vs. vancomycin: MRSA KS8, ratio of MIC of vancomycin and MIC of analogue; for MIC: Staphylococcus aureus MRSA KS8, read-out: MIC
# Summary of the method: as §1
Structure (SMILES),MIC (E. faecalis VRE 6) [µM],MIC-fold improvement vs. vancomycin (E. faecalis VRE 6),MIC (E. faecalis VSE 1) [µM],MIC-fold improvement vs. vancomycin (E. faecalis VSE 1),MIC (E. faecalis VRE 29) [µM],MIC-fold improvement vs. vancomycin (E. faecalis VRE 29),IC50 [1] [µM],MIC-fold improvement vs. vancomycin (MRSA KS1),MIC (MRSA KS1) [µM],IC50 [2] [µM],MIC-fold improvement vs. vancomycin (MRSA KS2),MIC (MRSA KS2) [µM],MIC (S. aureus VRSA) [µM],MIC-fold improvement vs. vancomycin (S. aureus VRSA),IC50 [3] [µM],MIC [4] [µM],MIC-fold improvement vs. vancomycin [4],MIC (E. faecalis VRE 37) [µM],MIC-fold improvement vs. vancomycin (MRSA KS6),MIC (MRSA KS6) [µM],further results
CN[C@H](CC(C)C)C(=O)N[C@H]1C(=O)N[C@@H](CC(N)=O)C(=O)N[C@H]2C(=O)N[C@H]3C(=O)N[C@H](C(=O)N[C@H](C(=O)NCCNC(=O)/C=C/c4ccc(Cl)cc4Cl)c4cc(O)cc(O)c4-c4cc3ccc4O)[C@H](O)c3ccc(c(Cl)c3)Oc3cc2cc(c3O[C@@H]2O[C@H](CO)[C@@H](O)[C@H](O)[C@H]2O[C@H]2C[C@](C)(N)[C@H](O)[C@H](C)O2)Oc2ccc(cc2Cl)[C@H]1O [Vanc-51],6.25,32,0.39,4,12.5,32,106 ± 21,4,0.20,89,4,0.20,0.39,256,80 ± 13,0.39,2,12.5,4,0.20,IC50 [5]: 82 ± 21 µM; MIC (E. faecalis VRE 53): 12.5 µM; MIC-fold improvement vs. vancomycin (E. faecalis VRE 53): 32; MIC (S. aureus VISA/HIP5827): 0.78 µM; MIC-fold improvement vs. vancomycin (S. aureus VISA/HIP5827): 8; MIC-fold improvement vs. vancomycin (MRSA KS89): 4; MIC (MRSA KS89): 0.20 µM
CN[C@H](CC(C)C)C(=O)N[C@H]1C(=O)N[C@@H](CC(N)=O)C(=O)N[C@H]2C(=O)N[C@H]3C(=O)N[C@H](C(=O)N[C@H](C(=O)NCC(=O)Nc4ccc(C#Cc5ccccc5)cc4)c4cc(O)cc(O)c4-c4cc3ccc4O)[C@H](O)c3ccc(c(Cl)c3)Oc3cc2cc(c3O[C@@H]2O[C@H](CO)[C@@H](O)[C@H](O)[C@H]2O[C@H]2C[C@](C)(N)[C@H](O)[C@H](C)O2)Oc2ccc(cc2Cl)[C@H]1O [Vanc-38],0.39,513,0.20,8,1.56,256,24 ± 1,4,0.20,12,4,0.20,0.78,128,8 ± 3.1,0.05,16,3.13,4,0.20,"MIC-fold improvement vs. vancomycin (E. faecalis VRE 37; VRE 37, ratio of MIC of vancomycin and MIC of analogue): 128; IC50 [5]: 4.4 ± 0.5 µM; MIC (E. faecalis VRE 53): 3.13 µM; MIC-fold improvement vs. vancomycin (E. faecalis VRE 53): 128; MIC (S. aureus VISA/HIP5827): 0.05 µM; MIC-fold improvement vs. vancomycin (S. aureus VISA/HIP5827): 128; MIC-fold improvement vs. vancomycin (MRSA KS89): 4; MIC (MRSA KS89): 0.20 µM"
